{"source": "paper PMC8997437", "about": "“Apelin Resistance Contributes to Muscle Loss during Cancer Cachexia in Mice” (Cancers, 2022)", "key": {"C2C12 myotubes [1]": {"tested_on": "C2C12 myotubes", "test": "Myotube diameter measurement (dexamethasone-induced atrophy)", "assay_type": "cell-based, mouse", "conditions": "four day-differentiated myotubes, 24 h; for protection of myotube diameter from dexamethasone-induced atrophy: 10 μM dexamethasone plus 10 nM peptide, n = 261–297", "description": "C2C12 (ATCC, Manassas, VA, USA), a myoblast cell line from the C3H mouse strain, was grown in DMEM (Dulbecco’s Modified Eagle’s Medium, Gibco, Waltham, MA, USA) with fetal bovine serum (FBS) (Euroclone, Pero, Italy) and 2 mM L-glutamine, (BioWest, Nuaillè, France) and maintained in culture at 37 °C with 5% CO2. Myoblasts differentiate into myotubes when they reached 80% confluence and were cultured for four days in DMEM, 2 mM L-glutamine, horse serum (HS) (Euroclone), at 37 °C and 8% CO2. The differentiation medium was changed every two days.\nPictures of myotubes were acquired with an Olympus Microscope IX71 (10× magnification, 10× ocular lens, Olympus, Shinjuku, Japan) with Cell F (2.6 Build1210, Olympus) imaging software for Life Science microscopy (Olympus Soft Imaging solution GmbH, Munster, Germany). Myotube diameters were measured in blind conditions using ImageJ software (National Institutes of Health, Bethesda, MA, USA). For each photo 10–11 myotubes were measured, calculating the mean of three diameters per myotube, for a total of at least 100 cells per condition.\nFour day-differentiated myotubes were exposed for 24 h to vehicle (Ctrl) or 10 μM dexamethasone (Dexa) and representative brightfield images are shown. […] We measured in blind the diameter of four day-differentiated myotubes exposed for 24 h to vehicle or 10 μM Dexamethasone (DEXA) in combination with vehicle or 10 nM apelin peptides of different lengths. […] Kruskal–Wallis test, **** p ≤ 0.0001, n = 261–297."}, "APJ": {"tested_on": "APJ", "conditions": "cited from earlier work"}, "C2C12 myotubes [2]": {"tested_on": "C2C12 myotubes", "test": "Total protein content of myotubes", "assay_type": "cell-based, mouse", "conditions": "10 μM dexamethasone, n = 6", "description": "Total proteins were extracted from myotubes and muscles and quantitated as in [31]. Proteins were separated by electrophoresis on 4–20% sodium dodecyl sulfate-polyacrylamide gel electrophoresis (SDS-PAGE) (Bio-Rad, Hercules, CA, USA) and transferred to a polyvinylidene difluoride membrane (GE Healthcare, Chicago, IL, USA), which was then saturated for 2 h at RT with 5% bovine serum albumin (BSA) or milk in TBS-T buffer (20 mM Tris, 150 mM NaCl and 0.1% Tween-20) (Sigma). […] Band intensities were analyzed using ImageJ software."}, "[3]": {"tested_on": "MuRF1, atrogin-1 and apelin mRNA in myotubes", "test": "Q-PCR of atrophy-related genes in myotubes", "assay_type": "cell-based, mouse", "conditions": "10 μM Dexa, 24 h, TBP housekeeping, n = 6", "description": "Total RNA was isolated from cells or muscles with QIAzol Lysis Reagent (Qiagen, Hilden, Germany) and miRNeasy Kit (Qiagen), as in [31]. RNA concentration and purity were measured in a spectrophotometer (NanoDrop 1000, ThermoFisher Scientific, Waltham, MA, USA).\nmRNA/μg in muscle was analyzed using TaqMan reverse transcription reagents (Life Technologies) or SYBR Green (Qiagen). β-Glucuronidase (GUSB), or Tata binding protein (TBP), or Importin 8 (IPO8), or 18S ribosomal RNA (18S) were used as housekeeping genes (HK). To normalize for three HK, we used the ratio between the arithmetic average and the geometric average of the ng of cDNA of each gene, as described in [32].\nTBP was used as housekeeping gene."}, "MuRF1 promoter": {"tested_on": "MuRF1 promoter", "test": "MuRF1 promoter-Firefly luciferase reporter assay in myoblasts", "assay_type": "cell-based, mouse", "conditions": "10 μM dexamethasone, 24 h, normalised to RLuc, n = 12", "description": "We used C2C12 myoblasts grown in a 24-well plate and transfected with pLKO or preproapelin-expressing plasmids with murine MuRF1 promoter-FLuc plasmid, and pRL-TK plasmid (Promega) using Lipofectamine 2000 (Life Technologies Europe BV, Carlsbad, CA, USA). The next day, they were treated with vehicle or 10 μM dexamethasone for 24 h. Luciferase activities were measured using the Dual-Luciferase Reporter Assay System (Promega) and a luminometer (Glomax 20/20 single tube luminometer, Promega).\nMyoblasts were transfected with a plasmid in which Firefly luciferase (FLuc) is under the control of a MuRF1 promoter, with another for Renilla luciferase (RLuc), under the control of thymidine kinase promoter to normalize the data (ratio 50:1) and with the empty vector pLKO, as control, or a preproapelin-expressing plasmid (Apln). After 24 h, myoblasts were treated with vehicle or with 10 μM Dexa for 24 h. […] Ordinary one-way ANOVA, ** p ≤ 0.01, **** p ≤ 0.0001, n = 12."}, "[4]": {"tested_on": "cAMP-responsive elements (CRE)", "test": "CRE-luciferase (cAMP) reporter assay in transfected myoblasts, forskolin induction", "assay_type": "cell-based, mouse", "conditions": "50 μM forskolin, 5 h", "text": "To test whether D-apelin still binds APJ, ultimately lowering cAMP levels, we transfected myoblasts with a reporter plasmid with the gene for FLuc under the control of cAMP-responsive elements (CRE). […] As expected, forskolin induced the CRE-related bioluminescent signal more than 20-fold (Figure 4C)."}}, "note": "Entries after “also recorded” stand apart in the source; their conditions may differ."}
{"compound": "[Pyr1]-Apelin 13 [L-apelin 13]", "values": [{"measurement": "protection of myotube diameter from dexamethasone-induced atrophy", "setting": "C2C12 myotubes [1]", "value": "fully protects myotubes from dexamethasone-induced atrophy; also recorded: fully preserved myotube diameter"}, {"measurement": "affinity for APJ", "setting": "APJ", "value": "nanomolar affinity"}]}
{"compound": "apelin 36: apelin isoform of 36 amino acids binding APJ (Tocris) (LVQPRGSRNGPGPWQGGRRKFRRQRPRLSHKGPMPF; Apelin-36; UniProt Q9ULZ1 42-77, looked up)", "values": [{"measurement": "effect of peptide alone on myotube diameter", "setting": "C2C12 myotubes [1]; 10 nM peptide with vehicle", "value": "reduced myotube diameters"}, {"measurement": "protection of myotube diameter from dexamethasone-induced atrophy", "setting": "C2C12 myotubes [1]", "value": "Unlike apelin 36, apelin 13 fully protects"}]}
{"compound": "C[C@@H]1C[C@H]2[C@@H]3CCC4=CC(=O)C=C[C@]4(C)[C@@]3(F)[C@@H](O)C[C@]2(C)[C@@]1(O)C(=O)CO", "note": "[dexamethasone, Dexamethasone]", "values": [{"measurement": "reduction of total protein content", "setting": "C2C12 myotubes [2]", "value": "about 25%"}, {"measurement": "apelin expression (mRNA)", "setting": "[3]", "value": "halved"}, {"measurement": "increase of MuRF1 expression (mRNA)", "setting": "[3]", "value": "about 3 fold"}, {"measurement": "increase of atrogin-1 expression (mRNA)", "setting": "[3]", "value": 3, "unit": "fold"}, {"measurement": "increase of FLuc expression under MuRF1 promoter", "setting": "MuRF1 promoter", "value": "~15", "unit": "fold"}]}
{"compound": "C=C[C@@]1(C)CC(=O)[C@]2(O)[C@@]3(C)[C@@H](O)CCC(C)(C)[C@@H]3[C@H](O)[C@H](OC(C)=O)[C@@]2(C)O1", "note": "[forskolin]", "values": [{"measurement": "induction of CRE-related bioluminescent signal", "setting": "[4]", "value": "more than 20 fold"}]}
